According to US11141432B2, “Materials and methods for increasing immune responses” (Mayo Foundation for Medical Education and Research, priority 2016, dated 2021):
Where a SMILES comes first, the peptide text is derived from it. The star is where a group is joined. Cbz = O=C(OCc1ccccc1)*; CH2F = FC*

Key:
[1] = tested on: CD8+ T cells obtained from OT-1 PL Rag−/− TCR transgenic mice; assay: Proliferation, clonal expansion and apoptosis of antigen-stimulated CD8+ T cells; type: cell-based
Experimental: (§1) Naïve or resting CD8+ T cells obtained from OT-1 PL Rag−/− TCR transgenic mice were stimulated in vitro with its cognate antigen in the presence of B7.1 co-stimulatory molecule, and cytokine IL-12 for 48h. The antigen constitutes sulfate latex microspheres (Life Technologies Cat. No. S37227) bearing DimerX Ig-recombinant dimeric mouse H-2Kb: Ig fusion protein (BD Biosciences, Cat. No. 550750) with recombinant mouse B7-1/CD80 Fc chimeric protein (R&D Systems, Cat. No. 740-B). Short synthetic peptide SIINFEKL (SEQ ID NO:1) at 10 nM concentration (sequence derived from a chicken ovalbumin protein), presented by H-2Kb DimerX serves as the cognate antigen for TCR of CD8+ T cells from OT-1 PL Rag−/−TCR transgenic mice. CD8+ T cells isolated from lymph nodes and/or spleen were stimulated with antigen in the following culture medium: Glutamine-free RPMI (Corning CellGro, Cat. No. 15-040-CV) supplemented with FBS 10%, HEPES 10 mM, NEAA 1 mM, sodium pyruvate 1 mM, glutamine 2 mM, 2-mercaptoethanol 50 μM, and Pen/Strep. T cells were cultured in flat-bottom 96-well plates at 2×105/0.2 ml/well with microspheres at the ratio of 5:1. Genipin was added at 50 μM concentration (based on dose titration that produces minimal cell death) and preincubated with cells for 45 mins before subjecting the CD8+ T cells to antigen stimulation. The CD8+ T cells are cultured and harvested at 4 hours to 48 hours for evaluation by molecular, physiologic and phenotypic characteristics by standard methodologies like flow cytometry based phenotyping, lysis for protein or mRNA derivation using western blot, PCR and metabolic flux analysis. Signal one was provided by MHC Class I (H-2Kb) dimers bearing 1-10 nM of OT-1 cognate peptide (SIINFEKL; SEQ ID NO:1) (Ag). Signal two was provided by 1 μg/ml of recombinant murine B7.1 (co-stimulation) immobilized on inert latex microspheres (serves as artificial antigen presenting cells) in the presence of the third signal; 2 ng/ml of rmIL-12 (cytokine). For antigen stimulation, the naïve T cells and latex microspheres were reacted at a ratio of 5:1 (T cells: microspheres) for various time points and were evaluated for their molecular, physiologic and phenotypic characteristics by standard methodologies including flow cytometry, western blot, PCR and metabolic flux analysis (FIG. 1). To determine whether UCP2 plays a role in antigen induced ROS generation and determine its impact on CD8+ T cell clonal expansion, antigen induced cytoplasmic (CROS) and/or mitochondrial ROS (mROS) production was evaluated by CM-H2DCFDA and MitoSox staining and flow cytometry analysis, respectively. Genetic (si-UCP2) or pharmacological (Genipin) means were used to block UCP2 function.

[2] = tested on: CD8+ T cells; assay: Lipid content / de novo lipid synthesis in antigen-stimulated CD8+ T cells; type: cell-based, mice
Experimental: (§2) Naïve or resting CD8+ T cells obtained from OT-1 PL Rag−/− TCR transgenic mice were stimulated in vitro with its cognate antigen in the presence of B7.1 co-stimulatory molecule, and cytokine IL-12 for 48h. The antigen constitutes sulfate latex microspheres (Life Technologies Cat. No. S37227) bearing DimerX Ig-recombinant dimeric mouse H-2Kb: Ig fusion protein (BD Biosciences, Cat. No. 550750) with recombinant mouse B7-1/CD80 Fc chimeric protein (R&D Systems, Cat. No. 740-B). Short synthetic peptide SIINFEKL (SEQ ID NO:1) at 10 nM concentration (sequence derived from a chicken ovalbumin protein), presented by H-2Kb DimerX serves as the cognate antigen for TCR of CD8+ T cells from OT-1 PL Rag−/−TCR transgenic mice. CD8+ T cells isolated from lymph nodes and/or spleen were stimulated with antigen in the following culture medium: Glutamine-free RPMI (Corning CellGro, Cat. No. 15-040-CV) supplemented with FBS 10%, HEPES 10 mM, NEAA 1 mM, sodium pyruvate 1 mM, glutamine 2 mM, 2-mercaptoethanol 50 μM, and Pen/Strep. T cells were cultured in flat-bottom 96-well plates at 2×105/0.2 ml/well with microspheres at the ratio of 5:1. Genipin was added at 50 μM concentration (based on dose titration that produces minimal cell death) and preincubated with cells for 45 mins before subjecting the CD8+ T cells to antigen stimulation. […]

[3] = tested on: antigen stimulated OT-1 cells; assay: Antigen-induced cytoplasmic and mitochondrial ROS by CM-H2DCFDA and MitoSox staining and flow cytometry; type: cell-based, mice
Experimental: as §2, with “[…] To determine whether UCP2 plays a role” for “T cells were cultured”, “antigen induced ROS generation and determine its impact” for “flat-bottom 96-well plates at 2×105/0.2 ml/well with microspheres at the ratio of 5:1. Genipin was added at 50 μM concentration (based”, “on” for “on dose titration that produces minimal cell death) and preincubated with cells for 45 mins before subjecting the”, “cell clonal expansion,” for “cells to”, “induced cytoplasmic (CROS) and/or mitochondrial ROS (mROS) production was evaluated by CM-H2DCFDA and MitoSox staining and flow cytometry analysis, respectively.” for “stimulation.”

[4] = tested on: CD8+ T cells; assay: Metabolic flux analysis (ECAR/OCR, spare respiratory capacity) of antigen-stimulated CD8+ T cells; type: cell-based, mice; settings: antigen stimulation in the presence of Genipin, FIG. 4A
Experimental: Naïve or resting CD8+ T cells obtained from OT-1 PL Rag−/− TCR transgenic mice were stimulated in vitro with its cognate antigen in the presence of B7.1 co-stimulatory molecule, and cytokine IL-12 for 48h. The antigen constitutes sulfate latex microspheres (Life Technologies Cat. No. S37227) bearing DimerX Ig-recombinant dimeric mouse H-2Kb: Ig fusion protein (BD Biosciences, Cat. No. 550750) with recombinant mouse B7-1/CD80 Fc chimeric protein (R&D Systems, Cat. No. 740-B). Short synthetic peptide SIINFEKL (SEQ ID NO:1) at 10 nM concentration (sequence derived from a chicken ovalbumin protein), presented by H-2Kb DimerX serves as the cognate antigen for TCR of CD8+ T cells from OT-1 PL Rag−/−TCR transgenic mice. CD8+ T cells isolated from lymph nodes and/or spleen were stimulated with antigen in the following culture medium: Glutamine-free RPMI (Corning CellGro, Cat. No. 15-040-CV) supplemented with FBS 10%, HEPES 10 mM, NEAA 1 mM, sodium pyruvate 1 mM, glutamine 2 mM, 2-mercaptoethanol 50 μM, and Pen/Strep. […] For antigen stimulation, the naïve T cells and latex microspheres were reacted at a ratio of 5:1 (T cells: microspheres) for various time points and were evaluated for their molecular, physiologic and phenotypic characteristics by standard methodologies including flow cytometry, western blot, PCR and metabolic flux analysis (FIG. 1).

[5] = tested on: CD8+ T cells; assay: Phenotyping of effector differentiation markers and transcription factors in CD8+ T cells; type: cell-based, mice; settings: CD8+ T cells treated with Genipin
Experimental: as §1, with “1).” for “1). To determine whether UCP2 plays a role in antigen induced ROS generation and determine its impact on CD8+ T cell clonal expansion, antigen induced cytoplasmic (CROS) and/or mitochondrial ROS (mROS) production was evaluated by CM-H2DCFDA and MitoSox staining and flow cytometry analysis, respectively. Genetic (si-UCP2) or pharmacological (Genipin) means were used to block UCP2 function.”

[6] = UCP2 inhibited OT-1 cells, FIG. 3C

`COC(=O)C1=CO[C@@H](O)[C@@H]2C(CO)=CC[C@H]12` [Genipin] was tested, and the “proliferation of activated CD8+ T cells” value ([1]; Genipin treated, 50 μM, FIG. 3A) was “limited proliferation”, the “apoptosis (contraction in clonal expansion)” value ([1]; Genipin treated, FIG. 3B) was “increased apoptosis” and the “lipid content (de novo lipid synthesis)” value ([2]; antigen stimulation in the presence of Genipin, FIG. 4B) was “increased lipid content”. For the same compound, the “mitochondrial reactive oxygen species (ROS)” value ([3]; Genipin treated) was “increase”, the “ECAR/OCR ratio (glycolysis over mitochondrial respiration)” value [4] was “higher” and the “spare respiratory capacity (SRC)” value [4] was “very low”. The “PD-1 and Lag3 expression” value [5] was “increases”, the Blimp1/BC16 ratio ([5]; FIG. 5) was “increasing” and the Tbet/Eomes ratio ([5]; FIG. 5) was “increasing”. For the same compound, the “expression of IFNγ, Gzmb, and effector cell markers KLRG1 and CXCR3” value ([5]; FIG. 5) was “increased expression”.

For SML0068, the “lipid synthesis on blocking cytoplasmic export of citrate from the mitochondria” value ([2]; UCP2 inhibited cells, FIG. 4D) was “reduced lipid synthesis”.

In the case of `CC(NC(=O)C(NC(=O)OCc1ccccc1)C(C)C)C(=O)NC(CC(=O)O)C(=O)CF` (stereo not drawn) [ZVAD] (Cbz-Val-Ala-Asp-CH2F; configuration not given here), the “Genipin-induced contraction in clonal expansion on addition of pan caspase inhibitor” value ([1]; added to Genipin treated cells, FIG. 3B) is reported as “can be reversed”.

`CC1(C)CC(NC(=O)C[P+](c2ccccc2)(c2ccccc2)c2ccccc2)CC(C)(C)N1[O]` [MitoTempo] was tested, and the “cell proliferation and cell contraction after quenching of mitochondrial ROS” value [1, 6] was “restored” and the “mitochondrial ROS after quenching with mitochondrially targeted antioxidant” value [3, 6] was “reverses ROS”.
